Several values for one entry are separate records, joined by “and”; a condition that tells them apart may be missing. Identical values can stand only once. Entries after “also recorded” stand apart in the source; their conditions may differ.
Experiments:
TRPM8 [1] = biological target: T1, TRPM8 (Homo sapiens, UniProt Q7Z2W7); experiment: TRPM8 receptor agonist assay (Fluo-8 calcium, FLIPR); format: cell-based; parameters: host or cells: CHO cells, stably transfected; settings: for ×Menthol: TRPM8 relative potency as repeated in Table 4; for Relative Potency: relative to menthol = 1.0 (Table 2)
Procedure: Compounds were tested on (CHO) cells stably transfected with human TRPM8 cDNAs using a Fluo-8 calcium kit and a Fluorescence Imaging Plate Reader ([…]™) instrument. […] Solutions were prepared by diluting stock solutions in a HEPES-buffered physiological saline (HBPS) solution. Test compound and control formulations were loaded in polypropylene or glass-lined 384-well plates, and placed into the FLIPR instrument (Molecular Devices Corporation, Union City, Calif., USA). Each was tested at 8 concentrations with n=4 replicates per determination. […] For […]™ assay, cells were plated in 384-well black wall, flat clear-bottom microtiter plates (Type: BD Biocoat Poly-D-Lysine Multiwell Cell Culture Plate) at approximately 30,000 cells per well. Cells were incubated at 37° C. overnight to reach a near confluent monolayer appropriate for use in a fluorescence assay. The test procedure was to remove the growth media and to add 40 μL of HBPS containing Fluo-8 for 30 minutes at 37° C. 10 μL of test compound, vehicle, or control solutions in HBPS were added to each well and read for 4 minutes. Concentration-response data were analysed via the FLIPR Control software that is supplied with the FLIPR System (MDS-AT) and fitted to a Hill equation.
Target sequence in this assay (Q7Z2W7 whole entry): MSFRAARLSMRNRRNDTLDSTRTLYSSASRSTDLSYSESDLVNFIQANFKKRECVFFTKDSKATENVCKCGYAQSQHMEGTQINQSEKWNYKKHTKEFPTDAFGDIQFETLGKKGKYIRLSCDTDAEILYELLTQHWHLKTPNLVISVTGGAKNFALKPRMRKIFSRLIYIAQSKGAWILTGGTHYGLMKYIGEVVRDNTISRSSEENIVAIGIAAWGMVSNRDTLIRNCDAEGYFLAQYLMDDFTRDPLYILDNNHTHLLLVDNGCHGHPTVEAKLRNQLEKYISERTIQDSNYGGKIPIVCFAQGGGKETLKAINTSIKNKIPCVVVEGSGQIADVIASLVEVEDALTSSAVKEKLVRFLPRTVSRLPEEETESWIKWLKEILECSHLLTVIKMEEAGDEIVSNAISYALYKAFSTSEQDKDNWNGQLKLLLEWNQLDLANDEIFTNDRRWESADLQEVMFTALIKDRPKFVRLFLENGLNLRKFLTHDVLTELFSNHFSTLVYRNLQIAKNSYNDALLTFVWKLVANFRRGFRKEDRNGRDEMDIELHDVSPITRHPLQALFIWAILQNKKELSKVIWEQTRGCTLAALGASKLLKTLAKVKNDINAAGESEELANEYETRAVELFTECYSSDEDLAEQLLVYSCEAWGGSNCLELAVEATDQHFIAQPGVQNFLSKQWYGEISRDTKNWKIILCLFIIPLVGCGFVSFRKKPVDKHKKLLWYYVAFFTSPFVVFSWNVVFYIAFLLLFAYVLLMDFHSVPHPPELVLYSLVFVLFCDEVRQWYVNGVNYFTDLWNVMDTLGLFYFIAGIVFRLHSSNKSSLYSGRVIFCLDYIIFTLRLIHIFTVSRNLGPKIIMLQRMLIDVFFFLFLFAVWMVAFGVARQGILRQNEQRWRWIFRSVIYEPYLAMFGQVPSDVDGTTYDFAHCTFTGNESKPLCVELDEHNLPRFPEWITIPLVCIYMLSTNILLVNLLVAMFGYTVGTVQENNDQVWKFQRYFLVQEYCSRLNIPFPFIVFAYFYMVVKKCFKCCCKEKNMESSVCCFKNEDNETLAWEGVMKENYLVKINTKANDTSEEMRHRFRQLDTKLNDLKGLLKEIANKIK

[2] = test system: pentobarbital-anesthetized male rats; experiment: Shaking frequency (wet-dog shaking) of anesthetized rats after intravenous, perioral or topical delivery; format: in vivo; settings: anesthetized rat; for Shaking frequency, Intravenous: 2 mg/kg i.v., 2nd trial, counted for 15 min; for Shaking frequency, Perioral: 20 mg/kg by oral gavage, counted for 40 min; for Shaking frequency, Topical: 20 μL pure compound on shaved abdominal skin, counted for 1 hr
Procedure: In experiments conducted here, test compounds were evaluated for “wet-dog shaking” as a model of cooling sensation. Using a standardized procedure, test compounds were compared in their ability to stimulate the shaking response by intravenous injection into a cannulated femoral vein, by perioral administration, and by topical delivery to the abdominal skin.
Each rat was given two injections with a 30 min interval. […] Shaking frequency was counted for 15 min after injection. Shaking was observed immediately after i.v. injection and at least 78% of the total shakes occurred in the first 5 min after injection. The response in the second trial was at least as robust in the first trial, showing the lack of desensitization.
Test compounds were dissolved in saline and administered by oral gavage to pentobarbital-anesthetized male albino rats at 20 mg/kg at a volume of 0.1 mL/100 g body weight [N=3 to 4 rats per compound]. Shaking was counted over a 40 min period and recorded at 10-min intervals.
For topical application of DAPA, the abdominal skin of the anesthetized rat was shaved and 20 μL of the pure DAPA was applied with a micropipette onto a ˜1 cm diameter circle of skin, enclosed with a ring of cream [Baby cream “Nevskaya kosmetika Detskyi” Nevskaya Kosmetika Inc., Saint-Petersburg 192029], as shown in FIG. 5D. The number of shakes was counted for 1 hr after application.

[3] = test system: heat-induced edema in the anesthetized rat paw; experiment: Heat-induced edema in the anesthetized rat paw; format: in vivo; settings: 20 mg/mL, 0.3 mL per paw, 30 min before 58° C. water 1 min; relative to contralateral paw
Source text: Inflammation is defined as the reaction of vascularized living tissue to local injury [Cotran, R S. 1989. Inflammation and repair. In Robbins: Pathologic Basis of Disease, ed. S. L. Robbins, R. S. Cotran, V. Kumar, 2:39-86. Philadelphia: Saunders. 4th ed.]. The characteristic signs of inflammation are redness, swelling, heat, and pain (and loss of function). The anti-inflammatory properties of the DAPA compounds were studied in a model of heat-induced vascular leakage [Wei et al. Method of inhibiting inflammatory response. U.S. Pat. No. 4,801,612; Wei et al., Anti-inflammatory peptide agonists. Annual Review Pharmacol Toxicol. 33:9-108, 1993]. When the paws of pentobarbital-anesthetized rats (200 to 300 g body weight) are immersed in 58° C. water for 1 min, the normal paw volume of about 1.8 mL was increased by ˜88% within 30 min, the swelling being due to an increase in water content of the paw.
Test compounds were dissolved in 20% water-80% R-1,2-propanediol at 20 mg/mL. The solutions were applied to the paw skin of pentobarbital-anesthetized rats (200 to 300 g body weight) at 0.3 mL per paw, using a syringe attached to a blunt 21 gauge needle covered at its tip with a piece of polyethylene 60 tubing. After distributing the solution over the paw, the paw was tightly enclosed in a plastic finger cut from a disposable glove. The contralateral paw [control] received only the vehicle. Thirty min after application, both paws were immersed in 58° C. water for 1 min. Thirty min after immersion, both paws were cut at ankle joint with scissors and weighed.
This degree of inhibition is significant for tissue protection as the injury stimulus is of supra-maximal intensity. The DAPA-2-5 effect was apparent to the untrained observer.

Strains TA 98 and TA100 = experiment: Ames test; format: cell-based; settings: TA 98 and TA100, with and without liver activation
Procedure: Preliminary toxicological studies were conducted on DAPA-2-5 and DAPA-2-7.

[4] = Repeated-dose toxicity in male rats (organ weights, histology); format: in vivo, rat; settings: 30 mg/kg subcutaneously daily for 7 days, male rats
TRPV1 = TRPV1 (Homo sapiens, UniProt Q8NER1); experiment: TRPV1 selectivity assay, calcium entry in transfected HEK293 cells; format: cell-based; parameters: expressed in transfected cells; host or cells: HEK293 cells; settings: maximum tested concentration 100 μM
Source text: (§1) The selectivity of test compounds were examined on TRPV1 channels (human TRPV1 gene expressed in HEK293 cells) and TRPA1 channels (human TRPA1 gene expressed in CHO cells). The test cells were Chinese Hamster Ovary (CHO) cells or Human Embyronic Kidney (HEK) 293 cells transfected with human TRPV1 or TRPA1 cDNAs.
(§2) The ordinate is given in Relative Fluorescence Units; % of maximum, which measure calcium entry into the transfected cells and the abscissa is the logarithm of the concentration of the test compound.

TRPA1 = TRPA1 (Homo sapiens, UniProt O75762); experiment: TRPA1 selectivity assay, calcium entry in transfected CHO cells; format: cell-based; parameters: expressed in transfected cells; host or cells: CHO cells; settings: maximum tested concentration 100 μM
Source text: as §1, §2

isolated mouse vagus = experiment: Capsaicin-induced depolarization of the isolated vagus nerve
Source text: An isolated vagus nerve model was developed at Imperial College, London, U.K. [Birrell et al. TrpA1 agonists evoke coughing in guinea pig and human volunteers. Amer. J. respiratory and critical care medicine 180, 1042-7, 2009; Patel, H. J. et al. Inhibition of guinea-pig and human sensory nerve activity and the cough reflex in guinea-pigs by cannabinoid (CB2) receptor activation. Brit. J. Pharmacol. 140, 261-8, 2003]. In this in vitro assay, segments of the mouse vagus nerve are placed on a platform and the electrical activity is recorded after topical application of capsaicin. Capsaicin is a known irritant that elicits pain when it is applied to the skin and it will depolarize the isolated vagus. […] The similar effect of DAPA-2-5 in this test system was published in U.S. Ser. No. 14/55,042. Briefly, segments of vagus nerve, caudal to the nodose ganglion, were removed from mice with fine forceps and segments placed in oxygenated Krebs solution and bubbled with 95% O2/5% CO2. The desheathed nerve trunk was mounted in a ‘grease-gap’ recording chamber and constantly superfused with Krebs solution with a flow rate of approximately 2 mL/min, and the electrical activity of the nerve monitored with electrodes. The temperature of the perfusate was kept constant at 37° C. by a water bath. Nerve depolarizations were induced by superfusion of the nerve with capsaicin (1 μM). After two reproducible depolarization responses to capsaicin, DIPA-1-7 was applied at 1 mg/mL for 10 minutes in the perfusate followed by capsaicin.

TRPM8 [5] = biological target: T1, TRPM8; experiment: TRPM8 assay of DIPA-1-10 at King's College, different assay conditions; format: cell-based
Source text: [Table 2] […] The data for DIPA-1-10 is not included in the Table 2 or Figure because it was obtained under different assay conditions.
Target sequence in this assay (Q7Z2W7 whole entry, species assumed): as the sequence (Q7Z2W7 whole entry) above

TRPM8 [6] = biological target: T1, TRPM8; settings: literature; cited from earlier work
Target sequence in this assay (Q7Z2W7 whole entry, species assumed): as the sequence (Q7Z2W7 whole entry) above

Chain of TRPA1 (O75762 whole entry): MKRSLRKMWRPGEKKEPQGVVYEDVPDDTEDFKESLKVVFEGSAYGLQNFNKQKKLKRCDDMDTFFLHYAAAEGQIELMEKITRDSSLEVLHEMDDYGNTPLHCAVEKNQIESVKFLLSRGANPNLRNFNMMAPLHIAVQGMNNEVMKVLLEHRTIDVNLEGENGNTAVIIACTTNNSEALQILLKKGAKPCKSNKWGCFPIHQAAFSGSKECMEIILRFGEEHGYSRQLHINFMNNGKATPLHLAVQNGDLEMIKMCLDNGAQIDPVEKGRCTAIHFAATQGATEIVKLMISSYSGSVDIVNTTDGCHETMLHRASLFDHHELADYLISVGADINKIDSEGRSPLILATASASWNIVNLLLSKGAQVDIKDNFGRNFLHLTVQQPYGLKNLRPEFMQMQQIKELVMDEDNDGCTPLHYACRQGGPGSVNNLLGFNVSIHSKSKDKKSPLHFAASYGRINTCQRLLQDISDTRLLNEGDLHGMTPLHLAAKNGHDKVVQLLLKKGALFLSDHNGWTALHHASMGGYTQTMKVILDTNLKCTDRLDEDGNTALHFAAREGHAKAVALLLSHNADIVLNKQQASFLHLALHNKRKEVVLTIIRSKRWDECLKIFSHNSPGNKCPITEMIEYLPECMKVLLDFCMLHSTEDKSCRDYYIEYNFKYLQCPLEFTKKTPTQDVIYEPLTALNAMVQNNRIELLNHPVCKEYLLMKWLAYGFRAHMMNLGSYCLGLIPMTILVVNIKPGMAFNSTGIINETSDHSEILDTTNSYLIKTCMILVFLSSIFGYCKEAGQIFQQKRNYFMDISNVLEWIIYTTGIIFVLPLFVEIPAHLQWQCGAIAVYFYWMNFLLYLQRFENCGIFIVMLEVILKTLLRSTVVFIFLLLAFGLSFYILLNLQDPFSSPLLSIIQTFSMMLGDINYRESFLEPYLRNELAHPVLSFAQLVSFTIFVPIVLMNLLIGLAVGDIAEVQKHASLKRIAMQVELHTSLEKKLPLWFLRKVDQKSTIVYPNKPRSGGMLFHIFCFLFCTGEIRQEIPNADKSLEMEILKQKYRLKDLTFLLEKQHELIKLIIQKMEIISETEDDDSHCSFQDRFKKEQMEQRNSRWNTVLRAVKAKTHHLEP
Chain of TRPV1 (Q8NER1 whole entry): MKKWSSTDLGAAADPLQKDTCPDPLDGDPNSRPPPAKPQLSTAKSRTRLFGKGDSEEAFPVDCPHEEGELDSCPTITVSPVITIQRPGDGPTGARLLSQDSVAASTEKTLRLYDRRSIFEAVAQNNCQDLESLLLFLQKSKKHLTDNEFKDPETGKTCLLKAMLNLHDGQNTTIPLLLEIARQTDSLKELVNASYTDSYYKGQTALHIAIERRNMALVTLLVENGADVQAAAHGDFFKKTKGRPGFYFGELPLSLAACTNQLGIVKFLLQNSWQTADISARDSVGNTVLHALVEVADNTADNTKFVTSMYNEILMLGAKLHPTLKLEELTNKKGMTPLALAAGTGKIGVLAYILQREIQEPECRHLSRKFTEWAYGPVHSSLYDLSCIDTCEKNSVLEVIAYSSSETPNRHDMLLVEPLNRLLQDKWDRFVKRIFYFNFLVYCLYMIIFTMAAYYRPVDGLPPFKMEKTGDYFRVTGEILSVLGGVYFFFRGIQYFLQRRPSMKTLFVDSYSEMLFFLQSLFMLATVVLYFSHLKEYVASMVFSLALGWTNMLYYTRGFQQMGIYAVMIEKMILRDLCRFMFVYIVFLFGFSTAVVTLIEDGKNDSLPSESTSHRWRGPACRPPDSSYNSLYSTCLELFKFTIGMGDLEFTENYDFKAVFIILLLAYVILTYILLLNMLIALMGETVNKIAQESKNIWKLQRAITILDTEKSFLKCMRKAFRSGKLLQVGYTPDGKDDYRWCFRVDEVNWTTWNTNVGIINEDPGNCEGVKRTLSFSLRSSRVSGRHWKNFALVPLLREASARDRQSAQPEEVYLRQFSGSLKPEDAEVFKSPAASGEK

Structure (SMILES) | ×Menthol (TRPM8 [1]) | Relative Potency (TRPM8 [1]) | Shaking frequency, Intravenous [2] [shakes] | Shaking frequency, Perioral [2] | Shaking frequency, Topical [2] [shakes] | Inhibition of Heat Edema (±S.E.M.) [3] [%] | other results
CCCCP(=O)(C(C)CC)C(C)CC (centres unmarked) [DAPA-2-4, 1-Di(sec-butyl) phosphinoyl-butane] | 0.3 | 0.3 | 8 ± 2 | 0 shakes | 0 | – | –
CCCCCCP(=O)(C(C)CC)C(C)CC (centres unmarked) [DAPA-2-6, 1-Di(sec-butyl) phosphinoyl-hexane] | 4.7 | 4.7 | 30 ± 3 | 0 shakes | 0 | 2.9 ± 1.4 | –
CCCCCCCP(=O)(C(C)CC)C(C)CC (centres unmarked) [DAPA-2-7, 1-Di(sec-butyl) phosphinoyl-heptane] | 3.4 | 3.4 | 15 ± 2 | 0 shakes | 0 | 5.2 ± 2.1 | mutagenicity in the Ames test (Strains TA 98 and TA100): Neither of these compounds was mutagenic; body or organ weights vs vehicle [4]: no significant differences in body or organ weights; heart and liver histology [4]: normal
CCCCCCCCP(=O)(C(C)CC)C(C)CC (centres unmarked) [DAPA-2-8, 1-Di(sec-butyl) phosphinoyl-octane] | 2.9 | 2.9 | 2. | 0 shakes | 0 | – | –
CCCCCP(=O)(CC(C)C)CC(C)C [DAPA-3-1, 1-Di(iso-butyl) phosphinoyl-pentane] | – | 0.2 | – | – | – | – | –
CCC(C)P(=O)(CCC(C)C)C(C)CC (centres unmarked) [DAPA-3-2, 1-Di(sec-butyl) phosphinoyl-3-methyl-butane] | – | 0.9 | – | – | – | – | –
CCCCCP(=O)(C(C)C)C(C)C [DIPA-1-5, 1-Diisopropyl-phosphinoyl-pentane] | 0.7 | 0.7 | 19 ± 3 | 86 shakes and 86 ± 7 shakes | 138 ± 15 | – | –
CCCCCCP(=O)(C(C)C)C(C)C [DIPA-1-6, 1-Diisopropyl-phosphinoyl-hexane] | 1.6 | 1.6 | 39 ± 4 | 56 shakes and 56 ± 5 shakes | 69 ± 8 | – | –
CCCCCCCP(=O)(C(C)C)C(C)C [DIPA-1-7, 1-Diisopropyl-phosphinoyl-heptane] | 5.4 | 5.4 | 25 ± 3 | 36 shakes and 36 ± 4 shakes | 79 ± 8 | −1.5 ± 2.0 | agonist or antagonist activity on TRPV1 channels (TRPV1): did not exhibit significant agonist on antagonist activity; also recorded: slight non-dose-dependent agonist action; agonist or antagonist activity on TRPA1 channels (TRPA1): did not exhibit significant agonist on antagonist activity; inhibition at 1000 µg/mL (isolated mouse vagus; isolated TRPM8 knock-out mouse vagus, 1 mg/mL, capsaicin 1 μM, read-out: percent inhibition of capsaicin-induced depolarization): ~20%; depolarization evoked by the compound by itself (isolated mouse vagus; isolated mouse vagus, no capsaicin): did not evoke depolarization; percent inhibition of capsaicin-induced depolarization (isolated mouse vagus; isolated normal (wild type) mouse vagus, 1 mg/mL superfused 10 min, capsaicin 1 μM): about 75%
CCCCCCCCP(=O)(C(C)C)C(C)C [DIPA-1-8, 1-Diisopropyl-phosphinoyl-octane] | 5.4 | 5.4 | 14 ± 2 | 0 shakes | 7 ± 2 | −5.0 ± 2.7 | agonist or antagonist activity on TRPV1 channels (TRPV1): did not exhibit significant agonist on antagonist activity; agonist or antagonist activity on TRPV1 channels (TRPV1; listed as DAPA-1-8): devoid of agonist or antagonist activities; agonist or antagonist activity on TRPA1 channels (TRPA1): did not exhibit significant agonist on antagonist activity; agonist or antagonist activity on TRPA1 channels (TRPA1; listed as DAPA-1-8): devoid of agonist or antagonist activities
CCCCCCCCCCP(=O)(C(C)C)C(C)C [DIPA-1-10] | – | – | – | – | – | – | potency × menthol (TRPM8 [5]): 1.7 ×; times less active than DIPA-1-9 (TRPM8 [5]): 2.4 ×
O=C1NC(c2cccc([N+](=O)[O-])c2)=CCN1c1ccccc1O [Icilin] | – | – | – | – | – | – | TRPM8 agonist potency × menthol (TRPM8 [6]): 200 ×
COc1cc(CNC(=O)CCCC/C=C/C(C)C)ccc1O [capsaicin, reference compound] | – | – | – | – | – | – | agonist or antagonist activity on TRPV1 channels (TRPV1): active

— patent US9956232B2, “Dialkyl-phosphinoyl-alkane (Dapa) compounds and compositions for treatment of lower gastrointestinal tract disorders” (priority 2016, dated 2018)
